Assay results reported in patent US6461841B2, “L-amino acid oxidase from Rhodococcus species” (Degussa AG, priority 2000, dated 2002).
pKi: −log10 of the molar value. Where two headings read alike, the source gives them in different places.

Tests used:
[1] = biological target: T1, L-amino acid oxidase from Rhodococcus opacus (Rhodococcus opacus, UniProt Q8VPD4); assay: Substrate spectrum and stereospecificity of L-amino acid oxidase; type: biochemical; details: relative to 10 mM L-alanine
T1 construct: made in house; host or cells: Rhodococcus opacus DSM 43250, the natural producer; purified from crude cell extract, not recombinant
Method: The transformation of a large number of natural and non-natural amino acids was investigated. The following test batch (1 mL) was used for this purpose: 10 mM enantiomer-pure amino acid (or 20 mM D,L-amino acid); 0.2 M TEA-HCl buffer, pH 7.6; 0.2 mg/mL odianisidine; 10 U/mL POX; L-amino acid oxidase solution in limiting amounts. The activity measurements were carried out by photometry at 436 nm and 30° C.
The stereospecificity of the L-amino acid oxidase was measured for several substrates (e.g. alanine, asparagine, glutamine, phenylalanine, methionine, leucine, ornithine, lysine, histidine), in that both the D-form and the L-form, as well as the racemate were used. In this connection, D-amino acids are not transformed in any case. The activities with the racemates were as high, for all the substrates, as for the pure L-amino acids in each instance. […] In the determination of the substrate spectrum, it is therefore also possible to use the D,L-form.
The measured activity values were indicated as relative values with reference to the activity with 10 mM L-alanine (Table 4). Weak activity was indicated with a + in the table.

[2] = biological target: T1, L-amino acid oxidase from Rhodococcus opacus; assay: biochemical
Method: To determine the kinetic constants, the reaction speed of oxidation was studied at different concentrations of amino acid and for different L-amino acids, under the following conditions (tests in microtiter plates):
0.2 M TEA-HCl buffer, pH 7.6; 0.2 mg/mL o-dianisidine; 25 U/mL POX; L-amino acid oxidase in limiting amounts; varying concentrations of the different L-amino acids. Activity measurement was conducted by photometry at 450 nm and 30° C.
The kinetic constants Vmax.

[3] = biological target: T1, L-amino acid oxidase from Rhodococcus opacus; assay: Transformation of D,L-amino acid with L-amino acid oxidase, HPLC analysis of L- and D-form; type: biochemical; details: for concentration of the D-form during the reaction: 7 mM D,L-amino acid
Method: […] The total volume of the batch was 1 mL. Samples (50 μL) were taken at regular intervals, and analyzed for the content of L- and D-phenylalanine, using HPLC. Directly after being taken, the samples were heated to 95° C. for 3 min, and then the precipitated protein was centrifuged off. 20 μL of the diluted top fraction were put into 180 μL 100 mM sodium borate buffer, pH 10.4, and mixed with 20 μL of a derivativization reagent (260 mM isobuturyl-L-cysteine (IBLC) and 170 mM ophthaldialdehyde (OPA) in 100 mM sodium borate buffer, pH 10.4).
Separation conditions of HPLC:
Column: RP-18, 250×4 mm, 5 Am, Kromasil (Phenomenex, Aschaffenburg, Germany)
Detection: fluorescence, Ex. 340 nm, Em. 440 nm
Flow agent A: 23 mM sodium acetate buffer; pH 6.5 adjusted with acetic acid
Flow agent B: acetonitrile:water (10:1.5)

[4] = 10 mM enantiomer-pure amino acid, pH 7.6, 30° C., 436 nm
[5] = marked #: used in racemic form (20 mM D,L-amino acid)
[6] = marked *: poor solubility, 100 μL top fraction of saturated L-amino acid solution per batch
[7] = 0.2 M TEA-HCl buffer, pH 7.6, 30° C., constant of the amino acid as substrate, read-out: Ki

T1 sequence (Q8VPD4 46-534): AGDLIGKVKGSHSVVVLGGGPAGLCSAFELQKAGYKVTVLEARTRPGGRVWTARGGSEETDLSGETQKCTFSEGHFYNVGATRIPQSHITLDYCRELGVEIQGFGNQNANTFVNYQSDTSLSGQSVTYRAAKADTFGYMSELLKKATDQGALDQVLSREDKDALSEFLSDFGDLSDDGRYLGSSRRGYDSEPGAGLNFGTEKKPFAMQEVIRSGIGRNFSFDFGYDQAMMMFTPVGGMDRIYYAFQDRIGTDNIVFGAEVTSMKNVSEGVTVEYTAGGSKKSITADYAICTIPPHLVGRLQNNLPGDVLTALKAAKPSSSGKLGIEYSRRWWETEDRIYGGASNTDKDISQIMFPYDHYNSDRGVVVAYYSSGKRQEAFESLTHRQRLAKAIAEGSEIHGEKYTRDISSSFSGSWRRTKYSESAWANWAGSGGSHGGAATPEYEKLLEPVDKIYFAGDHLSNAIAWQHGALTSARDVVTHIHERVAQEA

| SMILES | Rel. activity (%) [1, 4] | also measured |
| --- | --- | --- |
| N[C@@H](Cc1ccc(Cl)cc1)C(=O)O (racemic) [4-chlorophenylalanine] | 9% |  |
| N[C@@H](Cc1ccc(F)cc1)C(=O)O (racemic) [4-fluorophenylalanine] |  | Rel. activity (%) [1, 5]: 25% |
| N[C@@H](CCc1ccccc1)C(=O)O (racemic) [Homophenylalanine] |  | Rel. activity (%) ([1]; marked *#: racemic form, low concentration (top fraction of saturated solution)): 50% |
| CCCC[C@H](N)C(=O)O (racemic) [Norleucine] |  | Rel. activity (%) [1, 5]: 73% |
| COC[C@H](N)C(=O)O (racemic) [O-methyl serine] |  | Rel. activity (%) [1, 5]: 99% |
| N[C@H](C(=O)O)C(O)c1ccccc1 (mixture of isomers) [β-Phenyl serine] |  | Rel. activity (%) [1, 5]: 8% |
| NC1CCOC1=O (stereo not drawn) [2-amino-4-butyrolactone] | 66% |  |
| CC(C)(C)CCC(N)C(=O)O (stereo not drawn) [2-amino-5,5-dimethyl hexanic acid] | 44% |  |
| N[C@@H](Cc1ccccc1Cl)C(=O)O [2-chlorophenylalanine] | 24% |  |
| NCC(N)C(=O)O (stereo not drawn) [2.3-diaminopropionic acid] | 71% |  |
| NCCC(N)C(=O)O (stereo not drawn) [2.4-diaminobutyric acid] | 100% |  |
| N[C@@H](Cc1cccc2ccccc12)C(=O)O [3-(1-naphthyl)alanine] |  | Rel. activity (%) [1, 6]: 109% |
| Nc1ccc(C[C@H](N)C(=O)O)cc1 [4-aminophenylalanine] | 16% |  |
| N[C@@H](Cc1ccc([N+](=O)[O-])cc1)C(=O)O [4-nitrophenylalanine] |  | Rel. activity (%) [1, 6]: 30% |
| C[C@H](N)C(=O)O [Alanine, L-alanine] | 100% |  |
| N=C(N)NCCC[C@H](N)C(=O)O [Arginine] | 70% | pKi [2]: 2.27 |
| NC(=O)C[C@H](N)C(=O)O [Asparagine] | 97% |  |
| NC(=O)NCCC[C@H](N)C(=O)O [Citrulline] | 74% | pKi [2, 7]: 1.69 |

| SMILES | Rel. activity (%) [1, 4] | also measured |
| --- | --- | --- |
| N[C@@H](CSSC[C@H](N)C(=O)O)C(=O)O [Cystine] |  | Rel. activity (%) [1, 6]: 104% |
| CC(C)C[C@@H](N)C(=O)O [D-leucine] |  | concentration of the D-form during the reaction ([3]; 35 μg/mL enzyme, pH 7.6): remains constant; ee value ([3]; after a reaction time of 20 min): ≥ 99.2% |
| N[C@H](Cc1ccccc1)C(=O)O [D-phenylalanine] |  | concentration of the D-form during the reaction ([3]; 35 μg/mL enzyme, pH 7.6): remains constant; ee value ([3]; after a reaction time of 30 min): ≥ 99.2%; ee value ([3]; after a reaction time of 180 min): ≥ 99.5% |
| NC(=O)CC[C@H](N)C(=O)O [Glutamine] | 52% |  |
| N[C@@H](Cc1c[nH]cn1)C(=O)O [Histidine] | 36% |  |
| NC1CCSC1=O (stereo not drawn) [Homocysteine thiolactone] | 23% |  |
| CC[C@H](C)[C@H](N)C(=O)O [Isoleucine] | 45% |  |
| CC(C)C[C@H](N)C(=O)O [Leucine, L-leucine] | 68% | transformation of the L-form ([3]; 7 mM D,L-leucine, during the first 20 min): almost completely transformed; pKi [2, 7]: 2.24 |
| NCCCC[C@H](N)C(=O)O [Lysine, L-lysine] | 55% | pKi [2]: 1.20 |
| CSCC[C@H](N)C(=O)O [Methionine] | 72% | pKi [2]: 2.16; Vmax (U/mg) ([2]; 0.2 M TEA-HCl buffer, pH 7.6, 30° C.): 6.43 U/mg |
| CC(=O)NCCCC[C@H](N)C(=O)O [Nε-acetyllysine] | 46% |  |
| NCCC[C@H](N)C(=O)O [Ornithine] | 117% | pKi [2]: 1.90 |
| N[C@@H](Cc1ccccc1)C(=O)O [Phenylalanine, L-phenylalanine] | 53% | concentration in the course of the reaction ([3]; 7 mM D,L-phenylalanine, 35 μg/mL enzyme, pH 7.6, originally 3.5 mM): < 0.01 mM; pKi [2, 7]: 2.28 |
| N[C@@H](CO)C(=O)O [Serine] | 72% |  |
| N[C@@H](Cc1c[nH]c2ccccc12)C(=O)O [Tryptophan] | 12% |  |
| N[C@@H](Cc1ccc(O)cc1)C(=O)O [Tyrosine] |  | Rel. activity (%) [1, 6]: 54% |
| CC(C)[C@H](N)C(=O)O [Valine, L-valine] | 32% |  |
